Measurements taken from ChEMBL document CHEMBL4321834, “Glechomanamides A-C, Germacrane Sesquiterpenoids with an Unusual Δ8-7,12-Lactam Moiety from Salvia scapiformis and Their Antiangiogenic Activity” (J Nat Prod, 2019).
Active and inactive are the calls of the source.

Experiments:
HUVEC [1] = test: Decrease in total VEGF expression in HUVEC at 1 to 100 uM preincubated for 30 mins followed by incubation with VEGF for 20 mins by Western blot analysis; format: functional, cell-based; settings: Homo sapiens
[2] = biological target: Vascular endothelial growth factor receptor 2 (Homo sapiens) (UniProt P35968); test: Inhibition of VEGFR2 in HUVEC assessed as inhibition of VEGF-induced tube formation at 80 uM incubated for 8 hrs by inverted microscopic method; format: cell-based
[3] = biological target: Vascular endothelial growth factor receptor 2 (Homo sapiens) (UniProt P35968); test: Inhibition of VEGFR2 in HUVEC assessed as inhibition of VEGF-induced tube formation incubated for 8 hrs by inverted microscopic method; format: cell-based
HUVEC [4] = test: Decrease in BMP4 expression in HUVEC at 1 to 100 uM preincubated for 30 mins followed by incubation with VEGF for 20 mins by Western blot analysis; format: functional, cell-based; settings: Homo sapiens
[5] = biological target: Vascular endothelial growth factor receptor 2 (Homo sapiens) (UniProt P35968); test: Inhibition of VEGF-induced VEGFR2 phosphorylation in HUVEC at 1 to 100 uM preincubated for 30 mins followed by stimulation with VEGF for 20 mins by Western blot analysis; format: cell-based
HUVEC [6] = test: Decrease in D-glucose-induced ANGPT2 mRNA expression in HUVEC at 10 uM incubated for 48 hrs in presence of […] by real time-PCR analysis; format: functional, cell-based; settings: Homo sapiens
HUVEC [7] = test: Decrease in HK2 expression in HUVEC at 1 to 100 uM preincubated for 30 mins followed by incubation with VEGF for 20 mins by Western blot analysis; format: functional, cell-based; settings: Homo sapiens
HUVEC [8] = test: Decrease in GLUT1 expression in HUVEC at 1 to 100 uM preincubated for 30 mins followed by incubation with VEGF for 20 mins by Western blot analysis; format: functional, cell-based; settings: Homo sapiens
HUVEC [9] = test: Decrease in D-glucose-induced BMP4 mRNA expression in HUVEC at 10 uM incubated for 48 hrs in presence of […] by real time-PCR analysis; format: functional, cell-based; settings: Homo sapiens
HUVEC [10] = test: Decrease in D-glucose-induced BMP4 mRNA expression in HUVEC at 500 uM incubated for 48 hrs in presence of […] by real time-PCR analysis; format: functional, cell-based; settings: Homo sapiens
HUVEC [11] = test: Decrease in D-glucose-induced ANGPT2 mRNA expression in HUVEC at 500 uM incubated for 48 hrs in presence of […] by real time-PCR analysis; format: functional, cell-based; settings: Homo sapiens

Measured: inhibition

Chain of Vascular endothelial growth factor receptor 2 (Homo sapiens) (P35968 whole entry): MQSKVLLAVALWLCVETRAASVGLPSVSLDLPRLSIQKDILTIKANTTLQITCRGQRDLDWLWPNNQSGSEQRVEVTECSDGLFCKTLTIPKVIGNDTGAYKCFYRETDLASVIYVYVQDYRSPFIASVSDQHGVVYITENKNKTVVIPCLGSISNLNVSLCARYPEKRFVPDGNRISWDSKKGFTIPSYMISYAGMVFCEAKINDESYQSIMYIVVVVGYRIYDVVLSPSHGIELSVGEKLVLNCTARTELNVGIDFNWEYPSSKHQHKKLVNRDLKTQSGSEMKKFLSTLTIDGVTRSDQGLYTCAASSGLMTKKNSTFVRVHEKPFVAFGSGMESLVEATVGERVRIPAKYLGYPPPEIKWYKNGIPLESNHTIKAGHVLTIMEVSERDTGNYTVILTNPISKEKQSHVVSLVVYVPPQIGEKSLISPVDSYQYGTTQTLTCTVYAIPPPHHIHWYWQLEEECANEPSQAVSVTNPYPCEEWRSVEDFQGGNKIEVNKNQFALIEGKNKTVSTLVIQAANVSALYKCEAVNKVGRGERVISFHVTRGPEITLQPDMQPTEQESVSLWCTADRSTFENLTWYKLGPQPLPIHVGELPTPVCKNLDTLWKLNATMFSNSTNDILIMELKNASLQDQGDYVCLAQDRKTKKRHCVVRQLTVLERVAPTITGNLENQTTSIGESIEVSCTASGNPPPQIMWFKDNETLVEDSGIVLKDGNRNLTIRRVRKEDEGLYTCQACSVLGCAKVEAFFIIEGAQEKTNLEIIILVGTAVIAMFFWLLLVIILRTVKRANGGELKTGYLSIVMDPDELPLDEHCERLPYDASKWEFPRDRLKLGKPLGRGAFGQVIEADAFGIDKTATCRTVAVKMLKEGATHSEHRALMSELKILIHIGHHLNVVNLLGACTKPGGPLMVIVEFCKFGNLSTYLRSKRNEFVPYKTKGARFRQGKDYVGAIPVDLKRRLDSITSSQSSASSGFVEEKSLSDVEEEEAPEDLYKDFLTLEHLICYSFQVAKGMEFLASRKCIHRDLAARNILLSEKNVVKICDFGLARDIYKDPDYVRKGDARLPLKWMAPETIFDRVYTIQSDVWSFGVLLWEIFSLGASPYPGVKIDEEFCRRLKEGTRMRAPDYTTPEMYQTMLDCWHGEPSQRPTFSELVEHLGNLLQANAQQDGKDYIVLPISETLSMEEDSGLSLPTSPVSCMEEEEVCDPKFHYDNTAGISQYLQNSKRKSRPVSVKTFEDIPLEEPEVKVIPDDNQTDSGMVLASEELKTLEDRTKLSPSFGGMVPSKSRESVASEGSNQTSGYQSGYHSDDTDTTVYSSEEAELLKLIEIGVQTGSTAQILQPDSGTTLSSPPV

C/C=C(\C)C(=O)O[C@@H]1C2=C(C)C(=O)N[C@]2(O)C[C@@]2(C)O[C@@H]2CC[C@@]2(C)O[C@H]12
active: HUVEC [1] | [2] | [3] Dose-dependent effect | HUVEC [4] | [5] | HUVEC [6] | HUVEC [7] | HUVEC [8] | HUVEC [9]

CN(C)C(=N)NC(=N)N
active: HUVEC [10] | HUVEC [11]
